Assays:
[1] = Whole blood stability (half-life) and metabolite formation; assay type: in vitro ADME, rat, dog, monkey and human; details: cross species
Protocol: (§1) The stability (whole blood, liver S9, SGF, SIF, and PBS buffer) and MDCK-MDR1 monolayer permeability of LB100, LB-100 Carbonate and LB-100 POM were evaluated.
(§2) Samples were analyzed by LC-MS/MS using a SCIEX QTrap 5500 mass spectrometer coupled with an Agilent 1290 HPLC Infinity series, a CTC PAL chilled autosampler, all controlled by Analyst software. After separation on a C18 reverse phase HPLC column (Acquity UPLC HSS T3, 1.8, 2.1×50 mm) using an acetonitrile-water gradient system, peaks were analyzed by mass spectrometry (MS) using […] ionization in MRM mode.
Whole Blood Stability: Experimental Conditions Experimental Procedure: The stock solution was first diluted in acetonitrile at a concentration that is 100× of the desired final concentration. It was incubated in duplicate with whole blood at 37° C. At indicated times, an aliquot was removed from each experimental and control reaction and mixed with three volumes of ice-cold Stop Solution (methanol containing propranolol as internal standard). Stopped reactions were incubated at least ten minutes at −20° C. The samples were centrifuged to remove precipitated protein, and the supernatants were analyzed by LC-MS/MS to quantitate the remaining parent and the formation of metabolites.
Data were converted to % remaining by dividing by the time zero concentration value. Data were fit to a first-order decay model to determine half-life.

[2] = Liver S9 stability and metabolite formation; assay type: in vitro ADME, rat, dog, monkey and human; details: presence and absence of NADPH, cross species
Protocol: as §1, §2
Experimental Procedure: Test agent is incubated in duplicate with liver S9 at 37° C. The reaction contains liver S9 protein in 100 mM potassium phosphate, 2 mM NADPH, 3 mM MgCl2, pH 7.4. A control is run for each test agent omitting NADPH to detect NADPH-free degradation. At indicated times, an aliquot is removed from each experimental and control reaction and mixed with an equal volume of ice-cold Stop Solution (methanol, containing internal standard propranolol). Stopped reactions are incubated for 10 minutes at −20° C. Samples are centrifuged to remove precipitated protein, and supernatants are analyzed by LC/MS/MS to quantitate remaining parent and the formation of metabolites. Data are reported as % remaining by dividing by the time zero concentration value.

[3] = in vivo; details: rat, iv, 1.4 mg/kg; for Kp at 0.25 hr / Kp at 1 hr / Kp at 2 hr: Liver-plasma concentration ratio of Endothal
Protocol: 113 was dissolved in 4% NaHCO3 in saline for IV administration. The detailed procedure of dosing solution preparation was presented in Appendix I.
15 animals were placed on the study. The animals in IV arm were free access to food and water. For PO dose group, the animals were fasted overnight prior to dosing and the food was resumed 4 hours postdose.
The IV injection was conducted via foot dorsal vein. PO via oral gavage.
Blood collection: The animal is restrained manually. Approximately 200 μL of blood/time point is collected into sodium heparin tube via cardiac puncture for terminal bleeding (anesthetized under carbon dioxide). Blood sample will be put on ice and centrifuged to obtain plasma sample (2000 g, 5 min under 4° C.) within 10 minutes.
Liver collection: The animal will be euthanized with carbon dioxide inhalation. Open abdominal cavity with scissor to expose internal organs. Hold the carcass in an upright position and allow the organs to fall forward. Cut the connective tissues and remove the organs. Then the organs are rinsed with cold saline, dried on filtrate paper, placed into a screw-top tube and weighed, snap frozen by placing into dry-ice immediately.
Brain collection: Make a mid-line incision in the animals scalp and retract the skin. Using small bone cutters and rongeurs, remove the skull overlying the brain. Remove the brain using a spatula and rinse with cold saline, dried on filtrate paper, placed into a screw-top tube and weighed, snap frozen by placing into dry-ice immediately. […] Plasma, brain and liver samples were stored at approximately −80° C. until analysis. The backup samples will be discarded after three weeks after in-life completion unless requested. The unused dosing solutions will be discarded within three weeks after completion of the study.
Pharmacokinetic Analysis Software: The PK parameters were determined by non-compartmental model of non-compartmental analysis tool, Pharsight Phoenix WinNonlin® 6.2 software. […] Concentration data within 80%-120% of LLOQ was considered within normal instrumental variation and presented in the results. Terminal t1/2 calculation: Time points were automatic selected by “best fit” model for terminal half life estimation as the first option. Manual selection was applied when “best fit” could not well define the terminal phase. Results

[4] = male, SD, liver concentration of Endothal

| Compound | metabolite formation in whole blood half-life study [1] | metabolites observed in liver S9 stability study [2] | Kp at 0.25 hr ([3]; male, SD) | Kp at 1 hr ([3]; male, SD) | Kp at 2 hr ([3]; male, SD) | Kp at 0.25 hr ([3]; male, SD, 113 IV 1.4 mg/kg, SD rats, 0.25 hr, mean) | Kp at 1 hr ([3]; male, SD, 113 IV 1.4 mg/kg, SD rats, 1 hr, individual) | Kp at 2 hr ([3]; male, SD, 113 IV 1.4 mg/kg, SD rats, 2 hr, individual) | concentration at 0.25 hr [3, 4] | concentration at 1 hr [3, 4] | concentration at 2 hr [3, 4] | concentration at 6 hr [3, 4] | concentration at 10 hr [3, 4] | concentration at 24 hr [3, 4] | concentration at 2 hr ([3]; male, SD, plasma concentration of Endothal) | AUC(0-last) in liver [3] | AUC(0-∞) in liver [3] |
| --- | --- | --- | --- | --- | --- | --- | --- | --- | --- | --- | --- | --- | --- | --- | --- | --- | --- |
| COC(=O)C1C2CCC(O2)C1C(=O)N1CCN(C)CC1 (centres unmarked) [Compound 151] | No metabolites were detected | No metabolites were observed |  |  |  |  |  |  |  |  |  |  |  |  |  |  |  |
| O=C(O)C1C2CCC(O2)C1C(=O)O (centres unmarked) [Endothal, 7-oxabicyclo[2.2.1]heptane-2,3-dicarboxylic acid] |  |  | 29.2 | 27.9 | 23 | 22.7 | 21.7 | 45.7 | 727 ng/g | 902 ng/g | 998 ng/g | 526 ng/g | 288 ng/g | 66.9 ng/g | 30.4 ng/mL | 8086 ng·h/g | 8678 ng·h/g |

Source: US11236102B2, “Oxabicycloheptane prodrugs” (Lixte Biotechnology, Inc., priority 2015, dated 2022)
